Reference: ChEMBL document CHEMBL1773043, “Platensimycin and platencin congeners from Streptomyces platensis” (J Nat Prod, 2011)
Calls of active or inactive are those of the source.

Key:
Streptococcus pneumoniae = assay: Antibacterial activity against Streptococcus pneumoniae at 64 ug/ml after 20 hrs; format: functional, organism-based
[1] = target: T1, 3-oxoacyl-[acyl-carrier-protein] synthase 2 (Staphylococcus aureus) (UniProt Q5TKS0); assay: Inhibition of Staphylococcus aureus […] assessed as [2-14C]-malonyl CoA incorporation after 90 mins by cell free-based scintillation counting
T1 sequence (whole entry): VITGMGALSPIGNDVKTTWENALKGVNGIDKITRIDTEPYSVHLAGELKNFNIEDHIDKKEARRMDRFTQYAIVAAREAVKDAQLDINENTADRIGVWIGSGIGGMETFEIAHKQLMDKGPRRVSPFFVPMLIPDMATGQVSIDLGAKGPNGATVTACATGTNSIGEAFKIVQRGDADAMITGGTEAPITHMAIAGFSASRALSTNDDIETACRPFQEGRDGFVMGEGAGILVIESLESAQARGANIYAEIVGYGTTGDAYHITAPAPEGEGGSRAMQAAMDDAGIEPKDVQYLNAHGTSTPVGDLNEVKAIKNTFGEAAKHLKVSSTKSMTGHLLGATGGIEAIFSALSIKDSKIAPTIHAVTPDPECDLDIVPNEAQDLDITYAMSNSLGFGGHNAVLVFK

Staphylococcus aureus = assay: Antibacterial activity against Staphylococcus aureus at 64 ug/ml after 20 hrs; format: functional, organism-based
Enterococcus faecalis = assay: Antibacterial activity against Enterococcus faecalis at 64 ug/ml after 20 hrs; format: functional, organism-based
Enterococcus faecium = assay: Antibacterial activity against Enterococcus faecium at 64 ug/ml after 20 hrs; format: functional, organism-based
Escherichia coli = assay: Antibacterial activity against Escherichia coli at 64 ug/ml after 20 hrs; format: functional, organism-based
Haemophilus influenzae = assay: Antibacterial activity against Haemophilus influenzae at 64 ug/ml after 20 hrs; format: functional, organism-based

C[C@@]12C[C@@]34C=CC(=O)[C@@](C)(CCC(=O)Nc5c(O)ccc6c(=O)[nH]c(=O)oc56)C3[C@H](CC1C4)O2 (some centres not stated)
inactive: Activity (Streptococcus pneumoniae) | inhibition [1] | Activity (Staphylococcus aureus) | Activity (Enterococcus faecalis) | Activity (Enterococcus faecium) | Activity (Escherichia coli) | Activity (Haemophilus influenzae)

C=C1CC23C=CC(=O)[C@@](C)(CCC(=O)Nc4c(O)ccc(C(=O)OC)c4O)C2CC1C[C@H]3O (some centres not stated)
inactive: Activity (Streptococcus pneumoniae) | inhibition [1] | Activity (Staphylococcus aureus) | Activity (Enterococcus faecalis) | Activity (Enterococcus faecium) | Activity (Escherichia coli) | Activity (Haemophilus influenzae)

COCC(O)COc1ccc(C(C)(C)c2ccc(OCC(O)CO)cc2)cc1 (configuration not stated)
inactive: Activity (Streptococcus pneumoniae) | inhibition [1] | Activity (Staphylococcus aureus) | Activity (Enterococcus faecalis) | Activity (Enterococcus faecium) | Activity (Escherichia coli) | Activity (Haemophilus influenzae)

COC(=O)[C@H](CCC(N)=O)NC(=O)/C(C)=C/CC[C@]1(C)C(=O)C=C[C@]23CC4C[C@H](O[C@]4(C)C2)C31 (some centres not stated)
inactive: Activity (Streptococcus pneumoniae) | inhibition [1] | Activity (Staphylococcus aureus) | Activity (Enterococcus faecalis) | Activity (Enterococcus faecium) | Activity (Escherichia coli) | Activity (Haemophilus influenzae)

C[C@@]1(CCC(=O)Nc2c(O)ccc(C(=O)O)c2O)C(=O)C=CC23CC(CCC21)C(O)(CO)C3 (some centres not stated)
inactive: Activity (Streptococcus pneumoniae) | inhibition [1] | Activity (Staphylococcus aureus) | Activity (Enterococcus faecalis) | Activity (Enterococcus faecium) | Activity (Escherichia coli) | Activity (Haemophilus influenzae)

COC(=O)c1ccc(O)c(NC(=O)CC[C@]2(C)C(=O)C=CC34CC5(C)OC(C[C@]5(O)C3)C42)c1O (some centres not stated)
inactive: Activity (Streptococcus pneumoniae) | inhibition [1] | Activity (Staphylococcus aureus) | Activity (Enterococcus faecalis) | Activity (Enterococcus faecium) | Activity (Escherichia coli) | Activity (Haemophilus influenzae)

C=C1CC23C=CC(=O)[C@@](C)(CCC(=O)OC)C2CC1[C@@H](O)C3 (some centres not stated)
inactive: Activity (Streptococcus pneumoniae) | inhibition [1] | Activity (Staphylococcus aureus) | Activity (Enterococcus faecalis) | Activity (Enterococcus faecium) | Activity (Escherichia coli) | Activity (Haemophilus influenzae)

C[C@@]12C[C@@]34C=CC(=O)[C@@](C)(CCC(=O)Nc5c(O)ccc(C(N)=O)c5O)C3[C@H](CC1C4)O2 (some centres not stated)
inactive: Activity (Streptococcus pneumoniae) | inhibition [1] | Activity (Staphylococcus aureus) | Activity (Enterococcus faecalis) | Activity (Enterococcus faecium) | Activity (Escherichia coli) | Activity (Haemophilus influenzae)

COC(=O)CC[C@]1(C)C(=O)C=C[C@]23CC4C[C@H](O[C@]4(C)[C@@H]2O)C13 (some centres not stated)
inactive: Activity (Streptococcus pneumoniae) | inhibition [1] | Activity (Staphylococcus aureus) | Activity (Enterococcus faecalis) | Activity (Enterococcus faecium) | Activity (Escherichia coli) | Activity (Haemophilus influenzae)

COC(=O)c1ccc(O)c(NC(=O)CC[C@]2(C)C(=O)C=CC34CC(CCC32)C(O)(CO)C4)c1O (some centres not stated)
inactive: Activity (Streptococcus pneumoniae) | inhibition [1] | Activity (Staphylococcus aureus) | Activity (Enterococcus faecalis) | Activity (Enterococcus faecium) | Activity (Escherichia coli) | Activity (Haemophilus influenzae)

COC(=O)c1ccc(O)c(NC(=O)CC[C@]2(C)C(=O)C[C@@H](O)[C@]34CC5C[C@H](O[C@]5(C)C3)C42)c1O (some centres not stated)
inactive: Activity (Streptococcus pneumoniae) | inhibition [1] | Activity (Staphylococcus aureus) | Activity (Enterococcus faecalis) | Activity (Enterococcus faecium) | Activity (Escherichia coli) | Activity (Haemophilus influenzae)

C=C1C[C@@]23C=CC(=O)[C@@](C)(CCC(=O)Nc4c(O)ccc(C(=O)O)c4O)[C@@H]2C[C@@H]1CC3
inactive: Activity (Streptococcus pneumoniae) | Activity (Staphylococcus aureus) | Activity (Enterococcus faecalis) | Activity (Enterococcus faecium) | Activity (Escherichia coli) | Activity (Haemophilus influenzae)

C[C@@]12C[C@@]34C=CC(=O)[C@@](C)(CCC(=O)Nc5c(O)cccc5O)C3[C@H](CC1C4)O2 (some centres not stated)
inactive: Activity (Streptococcus pneumoniae) | inhibition [1] | Activity (Staphylococcus aureus) | Activity (Enterococcus faecalis) | Activity (Enterococcus faecium) | Activity (Escherichia coli) | Activity (Haemophilus influenzae)

COC(=O)c1ccc(O)c(NC(=O)CC[C@]2(C)C(=O)C=C[C@]34CC5C[C@H](O[C@]5(C)C3)C42)c1O (some centres not stated)
inactive: Activity (Streptococcus pneumoniae) | inhibition [1] | Activity (Staphylococcus aureus) | Activity (Enterococcus faecalis) | Activity (Enterococcus faecium) | Activity (Escherichia coli) | Activity (Haemophilus influenzae)

COC(=O)c1ccc(O)c(NC(=O)CC[C@]2(C)C(=O)C=CC34C[C@@]5(C)O[C@@H](CC5[C@H]3O)C42)c1O (some centres not stated)
inactive: Activity (Streptococcus pneumoniae) | inhibition [1] | Activity (Staphylococcus aureus) | Activity (Enterococcus faecalis) | Activity (Enterococcus faecium) | Activity (Escherichia coli) | Activity (Haemophilus influenzae)

CC(=O)NCC[C@H](NC(=O)CC[C@]1(C)C(=O)C=C[C@]23CC4C[C@H](O[C@]4(C)C2)C31)C(=O)O (some centres not stated)
inactive: Activity (Streptococcus pneumoniae) | inhibition [1] | Activity (Staphylococcus aureus) | Activity (Enterococcus faecalis) | Activity (Enterococcus faecium) | Activity (Escherichia coli) | Activity (Haemophilus influenzae)

COC(=O)c1ccc(O)c(NC(=O)CC[C@]2(C)C(=O)C=C[C@]34CC5C[C@H](O[C@]5(C)C3O)C42)c1O (some centres not stated)
inactive: Activity (Streptococcus pneumoniae) | inhibition [1] | Activity (Staphylococcus aureus) | Activity (Enterococcus faecalis) | Activity (Enterococcus faecium) | Activity (Escherichia coli) | Activity (Haemophilus influenzae)

C[C@@]1(CCC(=O)Nc2c(O)ccc(C(=O)O)c2O)C(=O)C=CC23CC4CC(OC4(CO)C2)C31 (some centres not stated)
inactive: Activity (Streptococcus pneumoniae) | inhibition [1] | Activity (Staphylococcus aureus) | Activity (Enterococcus faecalis) | Activity (Enterococcus faecium) | Activity (Escherichia coli) | Activity (Haemophilus influenzae)

C=C1CC23C=CC(=O)[C@@](C)(CCC(=O)Nc4c(O)ccc(C(=O)O)c4O)C2CC1C[C@H]3O (some centres not stated)
inactive: Activity (Streptococcus pneumoniae) | inhibition [1] | Activity (Staphylococcus aureus) | Activity (Enterococcus faecalis) | Activity (Enterococcus faecium) | Activity (Escherichia coli) | Activity (Haemophilus influenzae)

C[C@@]1(CCC(=O)Nc2c(O)ccc(C(=O)O)c2O)C(=O)C=CC23CCC(CC21)[C@@](O)(CO)C3 (some centres not stated)
inactive: Activity (Streptococcus pneumoniae) | inhibition [1] | Activity (Staphylococcus aureus) | Activity (Enterococcus faecalis) | Activity (Enterococcus faecium) | Activity (Escherichia coli) | Activity (Haemophilus influenzae)

CC12C[C@@]34C=CC(=O)[C@@](C)(CCC(=O)Nc5c(O)ccc(C(=O)O)c5O)C3[C@H](CC1C4)O2 (some centres not stated)
inactive: Activity (Streptococcus pneumoniae) | Activity (Staphylococcus aureus) | Activity (Enterococcus faecalis) | Activity (Enterococcus faecium) | Activity (Escherichia coli) | Activity (Haemophilus influenzae)

C/C(=C\CC[C@]1(C)C(=O)C=C[C@]23CC4C[C@H](O[C@]4(C)C2)C31)C(=O)N[C@@H](CCC(N)=O)C(=O)O (some centres not stated)
inactive: Activity (Streptococcus pneumoniae) | inhibition [1] | Activity (Staphylococcus aureus) | Activity (Enterococcus faecalis) | Activity (Enterococcus faecium) | Activity (Escherichia coli) | Activity (Haemophilus influenzae)

C=C1C2CCC3(C=CC(=O)[C@@](C)(CCC(=O)Nc4c(O)ccc(C(=O)OC)c4O)C3C2)[C@H]1O (some centres not stated)
inactive: Activity (Streptococcus pneumoniae) | inhibition [1] | Activity (Staphylococcus aureus) | Activity (Enterococcus faecalis) | Activity (Enterococcus faecium) | Activity (Escherichia coli) | Activity (Haemophilus influenzae)

C[C@@]12C[C@@]34C=CC(=O)[C@@](C)(CCC(=O)O)C3[C@H](CC1C4)O2 (some centres not stated)
inactive: Activity (Streptococcus pneumoniae) | inhibition [1] | Activity (Staphylococcus aureus) | Activity (Enterococcus faecalis) | Activity (Enterococcus faecium) | Activity (Escherichia coli) | Activity (Haemophilus influenzae)

C[C@@]1(O)CC23C=CC(=O)[C@@](C)(CCC(=O)Nc4c(O)ccc(C(=O)O)c4O)C2CC1CC3 (some centres not stated)
inactive: Activity (Streptococcus pneumoniae) | inhibition [1] | Activity (Staphylococcus aureus) | Activity (Enterococcus faecalis) | Activity (Enterococcus faecium) | Activity (Escherichia coli) | Activity (Haemophilus influenzae)

C=C1CC23C=CC(=O)[C@@](C)(CCC(=O)Nc4c(O)ccc(C(=O)OC)c4O)C2CC1[C@@H](O)C3 (some centres not stated)
inactive: Activity (Streptococcus pneumoniae) | inhibition [1] | Activity (Staphylococcus aureus) | Activity (Enterococcus faecalis) | Activity (Enterococcus faecium) | Activity (Escherichia coli) | Activity (Haemophilus influenzae)

C[C@@]12C[C@]34CC1C[C@H](O2)C3[C@](C)(CCC(=O)Nc1c(O)ccc(C(=O)O)c1O)C(=O)C[C@H]4O (some centres not stated)
inactive: Activity (Streptococcus pneumoniae) | inhibition [1] | Activity (Staphylococcus aureus) | Activity (Enterococcus faecalis) | Activity (Enterococcus faecium) | Activity (Escherichia coli) | Activity (Haemophilus influenzae)
